Data from ChEMBL document CHEMBL1122874, “Orally absorbable cephalosporin antibiotics. 1. Structure-activity relationships of benzothienyl- and naphthylglycine derivatives of 7-aminodeacetoxycephalosporanic acid” (1985).
≈ marks a conversion by molar mass, not a printed value.

Key:
[1] = system: Staphylococcus aureus; assay: Antibacterial activity against methicillin resistant Staphylococcus aureus S13E.; format: functional
[2] = system: Streptococcus; assay: Antibacterial activity against Streptococcus group D X66.; format: functional
[3] = system: Staphylococcus epidermidis; assay: Antibacterial activity against Staph. epidermis EP11; format: functional
[4] = system: Streptococcus pneumoniae; assay: Antibacterial activity against Streptococcus pneumoniae Park.
[5] = system: Streptococcus pyogenes; assay: Antibacterial activity against Streptococcus pyogenes C203.; format: functional
[6] = system: Haemophilus influenzae; assay: Antibacterial activity against sensitive Haemophilus influenzae C.L.; format: functional
[7] = system: Staphylococcus aureus; assay: Antibacterial activity against penicillin G sensitive Staphylococcus aureus X1.1.; format: functional
[8] = system: Streptococcus pneumoniae; assay: Antibacterial activity against Streptococcus pneumoniae Park.; format: functional
[9] = system: Haemophilus influenzae; assay: Antibacterial activity against resistant Haemophilus influenzae 76.; format: functional
[10] = system: Staphylococcus aureus; assay: Antibacterial activity against methicillin resistant Staphylococcus aureus X400; format: functional
[11] = system: Staphylococcus aureus; assay: Antibacterial activity against penicillin G sensitive Staphylococcus aureus V41; format: functional
[12] = system: Streptococcus pyogenes; assay: Antibacterial activity in mice infected with Streptococcus pyogenes C203 by subcutaneous administration; format: functional
[13] = system: Streptococcus pneumoniae; assay: Antibacterial activity in mice infected with Streptococcus pneumoniae Park1 by subcutaneous administration; format: functional
[14] = system: Staphylococcus aureus; assay: Antibacterial activity in mice infected with Staphylococcus aureus 3055; format: functional
[15] = system: Streptococcus pneumoniae; assay: Antibacterial activity in mice infected with Streptococcus pneumoniae Park1; format: functional
[16] = system: Staphylococcus aureus; assay: Antibacterial activity in mice infected with Staphylococcus aureus 3055 by subcutaneous administration; format: functional
[17] = system: Staphylococcus aureus; assay: Antibacterial activity in mice infected with Staphylococcus aureus 3055 by oral administration; format: functional
[18] = system: Streptococcus pyogenes; assay: Antibacterial activity in mice infected with Streptococcus pyogenes C203; format: functional
[19] = system: Streptococcus pyogenes; assay: Antibacterial activity in mice infected with Streptococcus pyogenes C203 by oral administration; format: functional
[20] = system: Streptococcus pneumoniae; assay: Antibacterial activity in mice infected with Streptococcus pneumoniae Park1 by oral administration; format: functional

Work on `CC1=C(C(=O)O)N2C(=O)C(NC(=O)[C@H](N)c3csc4cc(F)ccc34)C2SC1` (some centres undefined) yielded an MIC [1] of 8 µg/mL (≈ 19 µM), an MIC [2] of 128 µg/mL (≈ 304 µM) and an MIC [3] of 4 µg/mL (≈ 9.49 µM). For the same compound, the MIC [4] was 0.5 µg/mL (≈ 1.19 µM).

Compound `CC1=C(C(=O)O)N2C(=O)C(NC(=O)[C@H](N)c3csc4cccc(F)c34)C2SC1` (some centres undefined) has an MIC [5] of 1 µg/mL (≈ 2.37 µM), an MIC [6] of 16 µg/mL (≈ 38 µM) and an MIC [7] of 4 µg/mL (≈ 9.49 µM). It also gave an MIC [8] of 4 µg/mL (≈ 9.49 µM) and an MIC [9] of 4 µg/mL (≈ 9.49 µM).

`CC1=C(C(=O)O)N2C(=O)C(NC(=O)[C@H](N)c3csc4c(F)cccc34)C2SC1` (some centres undefined) showed an MIC [1] of 8 µg/mL (≈ 19 µM), an MIC [10] of 128 µg/mL (≈ 304 µM) and an MIC [5] of 0.125 µg/mL (≈ 0.297 µM). The MIC [11] was 16 µg/mL (≈ 38 µM), the MIC [3] was 4 µg/mL (≈ 9.49 µM) and the MIC [6] was 4 µg/mL (≈ 9.49 µM). For the same compound, the MIC [7] was 0.5 µg/mL (≈ 1.19 µM), the MIC [9] was 0.5 µg/mL (≈ 1.19 µM) and the MIC [4] was 0.5 µg/mL (≈ 1.19 µM).

`CC1=C(C(=O)O)N2C(=O)C(NC(=O)[C@H](N)c3csc4cc(Cl)ccc34)C2SC1` (some centres undefined) gave an MIC [1] of 8 µg/mL (≈ 18.3 µM), an MIC [10] of 16 µg/mL (≈ 36.5 µM) and an MIC [5] of 0.5 µg/mL (≈ 1.14 µM). It also gave an MIC [11] of 8 µg/mL (≈ 18.3 µM), an MIC [2] of 128 µg/mL (≈ 292 µM) and an MIC [3] of 4 µg/mL (≈ 9.13 µM). The MIC [6] was 8 µg/mL (≈ 18.3 µM), the MIC [7] was 1 µg/mL (≈ 2.28 µM) and the MIC [9] was 1 µg/mL (≈ 2.28 µM). For the same compound, the MIC [4] was 1 µg/mL (≈ 2.28 µM).

Work on `CC1=C(C(=O)O)N2C(=O)C(NC(=O)[C@H](N)c3ccc4cc(Cl)ccc4c3)C2SC1` (some centres undefined) yielded an MIC [1] of 8 µg/mL (≈ 18.5 µM), an MIC [10] of 64 µg/mL (≈ 148 µM) and an MIC [5] of 0.06 µg/mL (≈ 0.139 µM). It also gave an MIC [11] of 8 µg/mL (≈ 18.5 µM), an MIC [2] of 64 µg/mL (≈ 148 µM) and an MIC [3] of 4 µg/mL (≈ 9.26 µM). The MIC [6] was 32 µg/mL (≈ 74.1 µM), the MIC [7] was 0.25 µg/mL (≈ 0.579 µM) and the MIC [9] was 2 µg/mL (≈ 4.63 µM). For the same compound, the MIC [4] was 0.25 µg/mL (≈ 0.579 µM).

In the case of `COc1ccc2c([C@@H](N)C(=O)NC3C(=O)N4C(C(=O)O)=C(C)CSC34)csc2c1` (some centres undefined), the MIC [1] is reported as 4 µg/mL (≈ 9.23 µM), the MIC [10] is reported as 16 µg/mL (≈ 36.9 µM) and the MIC [5] is reported as 0.125 µg/mL (≈ 0.288 µM). It also gave an MIC [11] of 8 µg/mL (≈ 18.5 µM), an MIC [3] of 4 µg/mL (≈ 9.23 µM) and an MIC [6] of 32 µg/mL (≈ 73.8 µM). It also gave an MIC [7] of 1 µg/mL (≈ 2.31 µM), an MIC [9] of 4 µg/mL (≈ 9.23 µM) and an MIC [4] of 0.125 µg/mL (≈ 0.288 µM).

`CC1=C(C(=O)O)N2C(=O)C(NC(=O)[C@H](N)c3ccc4cccc(Cl)c4c3)C2SC1` (some centres undefined) was tested, and the MIC [1] was 1 µg/mL (≈ 2.32 µM), the MIC [10] was 4 µg/mL (≈ 9.26 µM) and the MIC [5] was 0.25 µg/mL (≈ 0.579 µM). For the same compound, the MIC [11] was 1 µg/mL (≈ 2.32 µM), the MIC [2] was 16 µg/mL (≈ 37 µM) and the MIC [3] was 1 µg/mL (≈ 2.32 µM). The MIC [6] was 8 µg/mL (≈ 18.5 µM), the MIC [7] was 0.5 µg/mL (≈ 1.16 µM) and the MIC [9] was 0.5 µg/mL (≈ 1.16 µM). The MIC [4] was 0.25 µg/mL (≈ 0.579 µM).

For `CC1=C(C(=O)O)N2C(=O)C(NC(=O)[C@H](N)c3ccc4ccccc4c3)C2SC1` (some centres undefined), the ED50 [12] was 2 mg/kg, the ED50 [13] was 17.6 mg/kg and the MIC [14] was 0.5 µg/mL (≈ 1.26 µM). The MIC [15] was 1 µg/mL (≈ 2.52 µM), the ED50 [16] was 0.07 mg/kg and the ED50 [17] was 0.41 mg/kg. For the same compound, the MIC [18] was 0.125 µg/mL (≈ 0.315 µM), the ED50 [19] was 3.4 mg/kg and the MIC [1] was 8 µg/mL (≈ 20.1 µM). The MIC [10] was 64 µg/mL (≈ 161 µM), the MIC [5] was 0.125 µg/mL (≈ 0.315 µM) and the MIC [11] was 8 µg/mL (≈ 20.1 µM). It also gave an MIC [2] of 64 µg/mL (≈ 161 µM), an MIC [3] of 4 µg/mL (≈ 10.1 µM) and an ED50 [20] greater than 25 mg/kg. For the same compound, the MIC [6] was 8 µg/mL (≈ 20.1 µM), the MIC [7] was 0.5 µg/mL (≈ 1.26 µM) and the MIC [9] was 2 µg/mL (≈ 5.03 µM). It also gave an MIC [4] of 0.5 µg/mL (≈ 1.26 µM).

`CC1=C(C(=O)O)N2C(=O)C(NC(=O)[C@@H](N)c3cc4c(Cl)cccc4s3)C2SC1` (some centres undefined) gave an MIC [1] of 4 µg/mL (≈ 9.13 µM), an MIC [10] of 16 µg/mL (≈ 36.5 µM) and an MIC [5] of 0.125 µg/mL (≈ 0.285 µM). It also gave an MIC [11] of 4 µg/mL (≈ 9.13 µM), an MIC [2] of 64 µg/mL (≈ 146 µM) and an MIC [3] of 2 µg/mL (≈ 4.57 µM). It also gave an MIC [6] of 32 µg/mL (≈ 73.1 µM), an MIC [7] of 0.5 µg/mL (≈ 1.14 µM) and an MIC [9] of 1 µg/mL (≈ 2.28 µM). It also gave an MIC [4] of 0.5 µg/mL (≈ 1.14 µM).

With `CC1=C(C(=O)O)N2C(=O)C(NC(=O)[C@H](N)c3cccc4ccc(Cl)cc34)C2SC1` (some centres undefined) the MIC [1] was 4 µg/mL (≈ 9.26 µM), the MIC [10] was 16 µg/mL (≈ 37 µM) and the MIC [5] was 0.25 µg/mL (≈ 0.579 µM). For the same compound, the MIC [11] was 4 µg/mL (≈ 9.26 µM), the MIC [3] was 2 µg/mL (≈ 4.63 µM) and the MIC [6] was 16 µg/mL (≈ 37 µM). It also gave an MIC [7] of 1 µg/mL (≈ 2.32 µM) and an MIC [9] of 4 µg/mL (≈ 9.26 µM).
